Reference: paper PMC6100468 (2018)

Legend:
[1] = test system: FPu18T (DNA, G4) AGGGTGGGGAGGGTGGGG; assay: FRET melting; details: 60 mM K+; 0.2 μM DNA, 1.0 μM compound (methods text: 2 μM, 100 mM LiCl); cacodylate pH 7.4
[2] = test system: F21T (DNA, G4) GGGTTAGGGTTAGGGTTAGGG; assay: FRET melting; details: 60 mM K+; 0.2 μM DNA, 1.0 μM compound (methods text: 2 μM, 100 mM LiCl); cacodylate pH 7.4
[3] = test system: Fc-kit1T (DNA, G4) AGGGAGGGCGCTGGGAGGAGGG; assay: microscale thermophoresis; details: 100 mM K+; 10 mM Tris-HCl pH 7.4
[4] = test system: Fc-kit1T (DNA, G4) AGGGAGGGCGCTGGGAGGAGGG; assay: FRET melting; details: 60 mM K+; 0.2 μM DNA, 1.0 μM compound (methods text: 2 μM, 100 mM LiCl); cacodylate pH 7.4
[5] = test system: F10T (DNA, hairpin, hexaethylene glycol (HEG) linker between nucleotides 10 and 11) TATAGCTATATATAGCTATA; assay: FRET melting; details: 60 mM K+; 0.2 μM DNA, 1.0 μM compound (methods text: 2 μM, 100 mM LiCl); cacodylate pH 7.4

Row | ΔTm [1] | ΔTm [2] | Kd [3] | ΔTm [4] | ΔTm [5] | SMILES
1 | 11.2 ± 0.1 °C | 1.8 ± 0.2 °C | 3.25 ± 0.32 µM |  |  | COc1cc2c(cc1OC)-c1cc3ccc(OC)c(OC)c3c[n+]1CC2
2 |  |  | 2.65 ± 0.33 µM |  |  | COc1cc2c(cc1OC)-c1cc3ccc(OC)c(OCC(=O)N[C@@H](CCCCN)C(=O)N[C@@H](CCCNC(=N)N)C(N)=O)c3c[n+]1CC2
3 |  | 0.0 ± 1.2 °C | 8.00 ± 0.89 µM |  |  | COc1cc2c(cc1OC)-c1cc3ccc(OC)c(OCC(=O)N[C@@H](CCCCN)C(=O)N[C@@H](Cc4ccccc4)C(=O)N[C@@H](CCCNC(=N)N)C(N)=O)c3c[n+]1CC2
4 | 19.6 ± 0.9 °C | 10.6 ± 0.2 °C | 1.47 ± 0.12 µM |  |  | COc1cc2c(cc1OC)-c1cc3ccc(OC)c(OCC(=O)N[C@@H](CCCNC(=N)N)C(=O)N[C@@H](CCCNC(=N)N)C(N)=O)c3c[n+]1CC2
5 | 5.0 ± 1.0 °C |  | 11.10 ± 0.51 µM | 6.1 ± 0.9 °C |  | COc1cc2c(cc1OC)-c1cc3ccc(OC)c(OCC(=O)N[C@@H](Cc4ccccc4)C(=O)NCC(=O)N[C@@H](CCCCN)C(N)=O)c3c[n+]1CC2
6 |  |  | 6.60 ± 0.472 µM |  |  | COc1cc2c(cc1OC)-c1cc3ccc(OC)c(OCC(=O)N[C@@H](Cc4ccccc4)C(=O)N[C@@H](CCCCN)C(=O)N[C@@H](CCCN=C(N)N)C(N)=O)c3c[n+]1CC2
7 | 23.8 ± 0.6 °C | 11.0 ± 0.1 °C | 1.41 ± 0.09 µM | 21.7 ± 0.8 °C | 0.8 ± 0.4 °C | COc1cc2c(cc1OC)-c1cc3ccc(OC)c(OCC(=O)N[C@@H](Cc4ccccc4)C(=O)N[C@@H](CCCNC(=N)N)C(N)=O)c3c[n+]1CC2
8 |  |  | 9.68 ± 0.57 µM |  | 0.0 ± 1.0 °C | COc1cc2c(cc1OC)-c1cc3ccc(OC)c(OCC(=O)N[C@@H](Cc4ccccc4)C(=O)N[C@@H](Cc4cnc[nH]4)C(=O)N[C@@H](CCCNC(=N)N)C(N)=O)c3c[n+]1CC2
